Results on 13 compounds are retold here after PubChem BioAssay AID194 (DTP/NCI, 2004).

Values joined by “and” are separate entries in the source; they are usually repeats but may differ in a detail not shown here. Identical values can stand only once. Records with an inconclusive call do not appear.

The subject of the test is BDF1 mice, B16 melanoma s.c., survival/tumor T/C. Description: NCI In Vivo Anticancer Drug Screen. Data for tumor model B16 Melanoma (subcutaneous) in B6D2F1 (BDF1) mice. The method, then:
The antitumor activity of compounds was measured in mice bearing transplantable tumors. Survival or tumor size were measured and the results are expressed as the measurement made in the treated group (T) divided by the measurement made in the vehicle treated control group (C). The tumor model used in this assay is B16 Melanoma (subcutaneous) in B6D2F1 (BDF1) mice

Setting [1] is: endpoint: median survival time, dose: 6.25 mg/kg/injection, schedule: Q01DX009 (ip), vehicle: other, higher = longer survival.
Where [2] appears, read: endpoint: median survival time, dose: 12.5 mg/kg/injection, schedule: Q01DX009 (ip), vehicle: other, higher = longer survival.

With `Cn1c(=O)[nH]c2nncnc2c1=O`, the T/C reads like this: (endpoint: median survival time, dose: 0.2 mg/kg/injection, schedule: Q01DX009 (ip), vehicle: water, higher = longer survival) 103 % of control; (endpoint: median survival time, dose: 0.4 mg/kg/injection, schedule: Q01DX009 (ip), vehicle: water, higher = longer survival) 119 % of control; (endpoint: median survival time, dose: 0.8 mg/kg/injection, schedule: Q01DX009 (ip), vehicle: water, higher = longer survival) 99 % of control; (endpoint: median survival time, dose: 3.12 mg/kg/injection, schedule: Q01DX009 (ip), vehicle: water, higher = longer survival) 98 % of control and 103 % of control; (endpoint: median survival time, dose: 6.25 mg/kg/injection, schedule: Q01DX009 (ip), vehicle: water, higher = longer survival) 117 % of control; (endpoint: median survival time, dose: 12.5 mg/kg/injection, schedule: Q01DX009 (ip), vehicle: water, higher = longer survival) 96 % of control and 99 % of control. Besides, where the note is “endpoint: median survival time, dose: 25.0 mg/kg/injection, schedule: Q01DX009 (ip), vehicle: water, higher = longer survival”, the T/C was 114 % of control.

As for `CO[C@H]1/C=C/O[C@@]2(C)Oc3c(C)c(O)c4c(O)c(c(/C=N/N5C(C)CN(Cc6ccccc6)CC5C)c(O)c4c3C2=O)NC(=O)/C(C)=C\C=C\[C@H](C)[C@H](O)[C@@H](C)[C@@H](O)[C@@H](C)[C@H](OC(C)=O)[C@@H]1C` (stereo partly drawn), the T/C reads like this: (endpoint: median survival time, dose: 50.0 mg/kg/injection, schedule: Q02DX Z (oral), vehicle: Klucel (hydroxypropylcellulose) (HPC), higher = longer survival) 101 % of control; (endpoint: median survival time, dose: 100.0 mg/kg/injection, schedule: Q02DX Z (oral), vehicle: Klucel (hydroxypropylcellulose) (HPC), higher = longer survival) 89 % of control; (endpoint: median survival time, dose: 200.0 mg/kg/injection, schedule: Q02DX Z (oral), vehicle: Klucel (hydroxypropylcellulose) (HPC), higher = longer survival) 86 % of control.

In the case of `COc1ccc(C[C@H](N)C(=O)NC2C(CO)OC(n3cnc4c(N(C)C)ncnc43)C2O)cc1` (stereo partly drawn), the T/C (endpoint: median survival time, dose: 8.0 mg/kg/injection, schedule: Q01DX009 (ip), vehicle: saline, higher = longer survival) is 151 % of control; the T/C (endpoint: median survival time, dose: 16.0 mg/kg/injection, schedule: Q01DX009 (ip), vehicle: saline, higher = longer survival) was 96 % of control; the T/C (endpoint: median survival time, dose: 32.0 mg/kg/injection, schedule: Q01DX009 (ip), vehicle: saline, higher = longer survival) is 107 % of control.

Consider `COC1/C=C\C=C(/C)C(=O)NC2=CC(=O)C(=O)C(=C2O)CC(C)CC(OC)C(O)C(C)/C=C(\C)C1OC(N)=O` (stereo not drawn), for which the T/C is 88 % of control (endpoint: median survival time, dose: 0.78 mg/kg/injection, schedule: Q01DX005 (ip), vehicle: other, higher = longer survival); 114 % of control (endpoint: median survival time, dose: 3.13 mg/kg/injection, schedule: Q01DX005 (ip), vehicle: other, higher = longer survival); 105 % of control (endpoint: median survival time, dose: 6.25 mg/kg/injection, schedule: Q01DX005 (ip), vehicle: other, higher = longer survival).

For `CN(C)CCCN1c2ccccc2Sc2ccc(Cl)cc21`, the T/C by setting is: (endpoint: median survival time, dose: 0.06 mg/kg/injection, schedule: Q01DX009 (ip), vehicle: saline, higher = longer survival) 98 % of control; (endpoint: median survival time, dose: 0.12 mg/kg/injection, schedule: Q01DX009 (ip), vehicle: saline, higher = longer survival) 92 % of control; (endpoint: median survival time, dose: 0.5 mg/kg/injection, schedule: Q01DX009 (ip), vehicle: saline, higher = longer survival) 97 % of control; (endpoint: median survival time, dose: 1.0 mg/kg/injection, schedule: Q01DX009 (ip), vehicle: saline, higher = longer survival) 98 % of control.

In the case of `C[n+]1c2ccccc2c(Nc2ccc(NS(=O)(=O)CCCCN=C(N)N)cc2)c2ccc(N)cc21`, the T/C (endpoint: median survival time, dose: 1.5 mg/kg/injection, schedule: Q01DX009 (sc), vehicle: saline, higher = longer survival) is 96 % of control; the T/C (endpoint: median survival time, dose: 3.0 mg/kg/injection, schedule: Q01DX009 (sc), vehicle: saline, higher = longer survival) was 112 % of control; the T/C (endpoint: median survival time, dose: 6.0 mg/kg/injection, schedule: Q01DX009 (sc), vehicle: saline, higher = longer survival) is 108 % of control.

Regarding `CCCCC[C@H](O)/C=C/[C@@H]1[C@@H](C/C=C\CCCC(=O)O)[C@@H](O)C[C@H]1O`, the T/C by setting is: (endpoint: median survival time, dose: 2.5 mg/kg/injection, schedule: Q04DX002 (ip), vehicle: saline with Tween-80, higher = longer survival) 89 % of control; (endpoint: median survival time, dose: 5.0 mg/kg/injection, schedule: Q04DX002 (ip), vehicle: saline with Tween-80, higher = longer survival) 110 % of control; (endpoint: median survival time, dose: 10.0 mg/kg/injection, schedule: Q04DX002 (ip), vehicle: saline with Tween-80, higher = longer survival) 106 % of control; (endpoint: median survival time, dose: 20.0 mg/kg/injection, schedule: Q04DX002 (ip), vehicle: saline with Tween-80, higher = longer survival) 93 % of control; (endpoint: median survival time, dose: 40.0 mg/kg/injection, schedule: Q04DX002 (ip), vehicle: saline with Tween-80, higher = longer survival) 114 % of control; (endpoint: median survival time, dose: 80.0 mg/kg/injection, schedule: Q04DX002 (ip), vehicle: saline with Tween-80, higher = longer survival) 86 % of control. Also, the T/C (endpoint: median survival time, dose: 160.0 mg/kg/injection, schedule: Q04DX002 (ip), vehicle: saline with Tween-80, higher = longer survival) is 90 % of control.

As for `CNc1ncnc2c1cnn2C`, the T/C is 92 % of control (endpoint: median survival time, dose: 10.0 mg/kg/injection, schedule: Q01DX009 (ip), vehicle: saline, higher = longer survival) and 103 % of control (endpoint: median survival time, dose: 20.0 mg/kg/injection, schedule: Q01DX009 (ip), vehicle: saline, higher = longer survival).

Regarding `Cc1cc(OCc2nc(N)nc(N)c2-c2ccc(Cl)c(Cl)c2)ccc1NS(=O)(=O)c1cccc(S(=O)(=O)F)c1`, the T/C reads like this: (endpoint: median survival time, dose: 117.0 mg/kg/injection, schedule: Q04DX003 (ip), vehicle: saline, higher = longer survival) 95 % of control; (endpoint: median survival time, dose: 176.0 mg/kg/injection, schedule: Q04DX003 (ip), vehicle: saline, higher = longer survival) 118 % of control.

On to `CC1(C)OCC(CO)(Nc2nc(N3CC3)nc(N3CC3)n2)CO1`, for which the T/C by setting is: (endpoint: median survival time, dose: 1.7 mg/kg/injection, schedule: Q01DX009 (ip), vehicle: saline, higher = longer survival) 112 % of control; (endpoint: median survival time, dose: 2.5 mg/kg/injection, schedule: Q01DX009 (ip), vehicle: saline, higher = longer survival) 104 % of control; (endpoint: median survival time, dose: 3.8 mg/kg/injection, schedule: Q01DX009 (ip), vehicle: saline, higher = longer survival) 88 % of control.

As for `CC1CCC(NC(=O)N(CCCl)N=O)CC1` (stereo not drawn), the T/C (endpoint: median survival time, dose: 2.0 mg/kg/injection, schedule: Q02DX009 (ip), vehicle: Klucel (hydroxypropylcellulose) (HPC), higher = longer survival) was 113 % of control; the T/C (endpoint: median survival time, dose: 2.5 mg/kg/injection, schedule: Q04DX003 (ip), vehicle: other, higher = longer survival) was 123 % of control; the T/C (endpoint: median survival time, dose: 4.0 mg/kg/injection, schedule: Q01DX001 (ip), vehicle: saline with Tween-80, higher = longer survival) is 87 % of control; the T/C (endpoint: median survival time, dose: 5.0 mg/kg/injection, schedule: Q04DX003 (ip), vehicle: other, higher = longer survival) was 104 % of control; the T/C (endpoint: median survival time, dose: 8.0 mg/kg/injection, schedule: Q01DX001 (ip), vehicle: saline with Tween-80, higher = longer survival) is 87 % of control and 120 % of control; the T/C (endpoint: median survival time, dose: 8.0 mg/kg/injection, schedule: Q02DX009 (ip), vehicle: Klucel (hydroxypropylcellulose) (HPC), higher = longer survival) was 189 % of control. Besides, the T/C was 106 % of control (endpoint: median survival time, dose: 8.0 mg/kg/injection, schedule: Q04DX003 (ip), vehicle: saline with Tween-80, higher = longer survival); 111 % of control (endpoint: median survival time, dose: 10.0 mg/kg/injection, schedule: Q01DX001 (ip), vehicle: other, higher = longer survival); 101 % of control (endpoint: median survival time, dose: 12.0 mg/kg/injection, schedule: Q04DX003 (ip), vehicle: saline with Tween-80, higher = longer survival); 124 % of control (endpoint: median survival time, dose: 16.0 mg/kg/injection, schedule: Q01DX001 (ip), vehicle: saline with Tween-80, higher = longer survival); 109 % of control (endpoint: median survival time, dose: 16.0 mg/kg/injection, schedule: Q02DX009 (ip), vehicle: Klucel (hydroxypropylcellulose) (HPC), higher = longer survival); 120 % of control (endpoint: median survival time, dose: 18.0 mg/kg/injection, schedule: Q01DX001 (ip), vehicle: saline with Tween-80, higher = longer survival). The T/C runs as follows: (endpoint: median survival time, dose: 18.0 mg/kg/injection, schedule: Q04DX003 (ip), vehicle: saline with Tween-80, higher = longer survival) 192 % of control; (endpoint: median survival time, dose: 20.0 mg/kg/injection, schedule: Q01DX001 (ip), vehicle: other, higher = longer survival) 192 % of control; (endpoint: median survival time, dose: 20.0 mg/kg/injection, schedule: Q04DX003 (ip), vehicle: other, higher = longer survival) 223 % of control and 256 % of control; (endpoint: median survival time, dose: 32.0 mg/kg/injection, schedule: Q01DX001 (ip), vehicle: saline with Tween-80, higher = longer survival) 157 % of control; (endpoint: median survival time, dose: 36.0 mg/kg/injection, schedule: Q01DX001 (ip), vehicle: saline with Tween-80, higher = longer survival) 213 % of control; (endpoint: median tumor weight (est.), dose: 15.0 mg/kg/injection, schedule: Q01DX001 (ip), vehicle: Klucel (hydroxypropylcellulose) (HPC), higher = larger tumour) 50 % of control and 72 % of control. Also, the T/C was 68 % of control (endpoint: median tumor weight (est.), dose: 30.0 mg/kg/injection, schedule: Q01DX001 (ip), vehicle: Klucel (hydroxypropylcellulose) (HPC), higher = larger tumour) and 45 % of control (endpoint: median tumor weight (est.), dose: 60.0 mg/kg/injection, schedule: Q01DX001 (ip), vehicle: Klucel (hydroxypropylcellulose) (HPC), higher = larger tumour).

As to `CO[C@H]1C[C@](C)(O)Cc2cc3c(c(O)c21)C(=O)c1c(O)cc2c(c1C3=O)O[C@@H]1O[C@@]2(C)[C@H](O)[C@@H](N(C)C)[C@@H]1O`, the T/C is 104 % of control under setting [1] and 95 % of control under setting [2].

Take `COC1C(O)C(C)OC(OC2C(Oc3cccc4c(O)c5c(=O)oc6ccc(C)c7c(=O)oc(c34)c5c67)OC(C)C(O)C2O)C1O` (stereo not drawn): the T/C is 95 % of control under setting [1]; 104 % of control under setting [2]; 100 % of control (endpoint: median survival time, dose: 25.0 mg/kg/injection, schedule: Q01DX009 (ip), vehicle: other, higher = longer survival); 101 % of control (endpoint: median survival time, dose: 50.0 mg/kg/injection, schedule: Q01DX009 (ip), vehicle: other, higher = longer survival).
